# According to BindingDB's records for patent US9624213 (Plexxikon, 2017):
# Target: Serine/threonine-protein kinase B-raf [V600E] (Homo sapiens, UniProt P15056, V600E)
# Assay: Biochemical activity
# Description: Assays for biochemical and cell based activity are known in the art, for example, as described in PCT publication WO 2007/002433, the disclosure of which is hereby incorporated by reference as it relates to such assays. For example, the biochemical activity IC50 values are determined with respect to inhibition of B-Raf V600E kinase activity or p-Erk kinase activity, where inhibition of phosphorylation of a peptide substrate is measured as a function of compound concentration. Compounds to be tested are diluted in dimethyl sulfoxide to a concentration of 0.1 mM. These are serially diluted 15 uL into 30 uL of dimethyl sulfoxide seven times in 96 well plates for a total of 8 dilution points, and for each dilution point 1 uL is added to a well of an assay plate. Plates are prepared such that each well in a 384 well plate contains 1 uL of compound in 10 uL volume with 0.1 ng Raf enzyme (i.e. any of B-Raf, c-Raf-1 or B-Raf V600E, Upstate Biotechnology or prepared by methods known to one of skill in the art), 50 mM HEPES, pH 7.0, 50 mM NaCl, 2 mM MgCl2, 1 mM MnCl2, 0.01% Tween-20, 1 mM DTT, and 100 nM biotin-MEK1 as substrate. The reaction is started with addition of 10 uL of 200 uM ATP (i.e. final 100 uM ATP). After incubation of the kinase reaction for 45 minutes at room temperature, 5 uL/well of Stop Solution is added (25 mM Hepes pH 7.5, 100 mM EDTA, 0.01% BSA with donor beads (Streptavidin coated beads, Perkin Elmer), acceptor beads (Protein A coated, Perkin Elmer), and anti phosphor MEK1/2 antibody (CellSignal), each at final concentration 10 ug/mL).
# Chain of Serine/threonine-protein kinase B-raf [V600E] (P15056 2-766 V600E limits assumed): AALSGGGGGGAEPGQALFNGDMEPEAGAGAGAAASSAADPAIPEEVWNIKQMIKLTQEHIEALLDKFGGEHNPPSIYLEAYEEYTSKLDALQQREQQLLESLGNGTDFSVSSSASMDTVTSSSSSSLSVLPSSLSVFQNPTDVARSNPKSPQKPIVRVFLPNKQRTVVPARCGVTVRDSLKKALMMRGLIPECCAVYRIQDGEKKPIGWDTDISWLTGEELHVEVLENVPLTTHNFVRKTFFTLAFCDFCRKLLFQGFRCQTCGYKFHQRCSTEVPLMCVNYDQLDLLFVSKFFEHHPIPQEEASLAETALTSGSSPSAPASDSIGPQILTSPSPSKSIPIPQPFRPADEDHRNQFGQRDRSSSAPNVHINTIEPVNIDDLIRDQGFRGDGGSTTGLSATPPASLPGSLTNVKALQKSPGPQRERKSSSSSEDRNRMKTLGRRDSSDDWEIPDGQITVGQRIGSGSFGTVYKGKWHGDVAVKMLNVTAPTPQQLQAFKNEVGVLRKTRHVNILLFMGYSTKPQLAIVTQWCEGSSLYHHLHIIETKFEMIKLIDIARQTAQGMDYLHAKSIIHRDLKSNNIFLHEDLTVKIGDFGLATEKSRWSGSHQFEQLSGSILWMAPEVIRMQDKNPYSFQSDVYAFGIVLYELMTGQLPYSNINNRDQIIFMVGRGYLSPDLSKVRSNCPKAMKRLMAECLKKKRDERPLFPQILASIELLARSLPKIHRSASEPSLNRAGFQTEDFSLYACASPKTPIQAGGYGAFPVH
row,IC50,SMILES
1,< 100 nM,"CCN(C)S(=O)(=O)Nc1cccc(C(=O)c2c[nH]c3ncc(C#N)cc23)c1F [US9624213, Compound P-0039]"
2,< 100 nM,CN(C)c1ncc(-c2cnc3[nH]cc(C(=O)c4c(F)ccc(NS(=O)(=O)N5CCCC5)c4F)c3c2)cn1
3,< 100 nM,COc1ncc(-c2cnc3[nH]cc(C(=O)c4cccc(NS(=O)(=O)N(C)C5CC5)c4F)c3c2)cn1
4,< 100 nM,CN(C)S(=O)(=O)Nc1cccc(C(=O)c2c[nH]c3ncc(-c4ccc(F)cc4)cc23)c1F
5,< 100 nM,CCN(C)S(=O)(=O)Nc1cccc(C(=O)c2c[nH]c3ncc(-c4ccc(F)cc4)cc23)c1F
6,< 100 nM,"Cc1ccc(-c2cnc3[nH]cc(C(=O)c4cccc(NS(=O)(=O)N(C)C)c4F)c3c2)cn1 [US9624213, Compound P-0029]"
7,< 100 nM,CCN(C)S(=O)(=O)Nc1cccc(C(=O)c2c[nH]c3ncc(-c4ccc(C)nc4)cc23)c1F
8,< 100 nM,CCN(C)S(=O)(=O)Nc1cccc(C(=O)c2c[nH]c3ncc(-c4ccc(Cl)cc4)cc23)c1F
9,< 100 nM,CCN(C)S(=O)(=O)Nc1ccc(F)c(C(=O)c2c[nH]c3ncc(-c4cnc(OC)nc4)cc23)c1F
10,< 100 nM,"COc1ncc(-c2cnc3[nH]cc(C(=O)c4cccc(NS(=O)(=O)N5CCCC5)c4F)c3c2)c(OC)n1 [US9624213, Compound P-0044]"
11,< 100 nM,CN(C)c1ccc(-c2cnc3[nH]cc(C(=O)c4cccc(NS(=O)(=O)N(C)C)c4F)c3c2)cn1
12,> 100 nM,"CC(C)CN(C)S(=O)(=O)Nc1cccc(C(=O)c2c[nH]c3ncc(I)cc23)c1F [US9624213, Compound P-0070]"
13,< 100 nM,CCN(C)S(=O)(=O)Nc1cccc(C(=O)c2c[nH]c3ncc(-c4cccnc4)cc23)c1F
14,> 100 nM,CNS(=O)(=O)Nc1cccc(C(=O)c2c[nH]c3ncc(-c4cnc(OC)nc4)cc23)c1F
15,< 100 nM,CN(C)S(=O)(=O)Nc1cccc(C(=O)c2c[nH]c3ncc(-c4ccc(C#N)cc4)cc23)c1F
16,< 100 nM,CCN(C)S(=O)(=O)Nc1cccc(C(=O)c2c[nH]c3ncc(-c4ccc(C#N)cc4)cc23)c1F
17,< 100 nM,CCN(C)S(=O)(=O)Nc1cccc(C(=O)c2c[nH]c3ncc(-c4cnc(OC)nc4)cc23)c1F
18,< 100 nM,"CCC(C)S(=O)(=O)Nc1cccc(C(=O)c2c[nH]c3ncc(-c4cnc(C5CC5)nc4)cc23)c1F (centres undefined) [US9624213, Compound P-0228]"

row,SMILES,IC50
1,O=C(c1c(F)ccc(NS(=O)(=O)N2CCCC2)c1F)c1c[nH]c2ncc(I)cc12,< 100 nM
